Source: ChEMBL document CHEMBL5236653, “Dual functional antioxidant and butyrylcholinesterase inhibitors for the treatment of Alzheimer's disease: Design, synthesis and evaluation of novel melatonin-alkylbenzylamine hybrids” (Bioorg Med Chem, 2023)

Assays:
[1] = biological target: Acetylcholinesterase (Electrophorus electricus, UniProt O42275); assay: Inhibition of electric eel AChE using ATCI and BTCI as substrate preincubated for 5 mins followed by substrate addition and measured after 3 mins by DTNB-reagent based Ellman's method
[2] = biological target: Cholinesterase (Equus caballus, UniProt P81908); assay: Inhibition of equine serum BuChE using ATCI and BTCI as substrate preincubated for 5 mins followed by substrate addition and measured after 3 mins by DTNB-reagent based Ellman's method; format: cell-free
[3] = Antioxidant activity assessed as trolox equivalent of ORAC radical scavenging activity by ORAC assay; format: functional
[4] = biological target: T1, Acetylcholinesterase (Homo sapiens, UniProt P22303); assay: Inhibition of human erythrocyte AChE using ATCI and BTCI as substrate preincubated for 5 mins followed by substrate addition and measured after 3 mins by DTNB-reagent based Ellman's method
[5] = biological target: T2, Cholinesterase (Homo sapiens, UniProt P06276); assay: Inhibition of human serum BuChE using ATCI and BTCI as substrate preincubated for 5 mins followed by substrate addition and measured after 3 mins by DTNB-reagent based Ellman's method; format: cell-free
[6] = Selectivity index, ratio of IC50 for inhibition of human erythrocyte AChE to IC50 for inhibition of human serum BuChE
[7] = in vitro; settings: PAMPA
Description: Permeability coefficient of the compound across blood brain barrier incubated for 18 hrs by PAMPA assay

[8] = biological target: Acetylcholinesterase (Electrophorus electricus) (UniProt O42275); assay: Inhibition of electric eel AChE at 100 uM using ATCI and BTCI as substrate preincubated for 5 mins followed by substrate addition and measured after 3 mins by DTNB-reagent based Ellman's method relative to control; settings: time 8.0 min
[9] = Selectivity index, ratio of IC50 for inhibition of equine serum BuChE to inhibition of electric eel AChE
[10] = Selectivity index, ratio of IC50 for inhibition of human erythrocyte AChE to inhibition of human serum BuChE
[11] = biological target: T1, Acetylcholinesterase; assay: Inhibition of human erythrocyte AChE at 100 uM using ATCI and BTCI as substrate preincubated for 5 mins followed by substrate addition and measured after 3 mins by DTNB-reagent based Ellman's method relative to control; settings: time 8.0 min
[12] = biological target: T2, Cholinesterase; assay: Mixed type inhibition of human BuChE assessed as inhibition constant using butyrylthiocholine iodide as substrate by lineweaver-burk plot analysis
[13] = tested on: PC-12; assay: Cytotoxicity against rat PC12 cells assessed as cell viability at 0.625 to 10 uM measured after 24 hrs by CCK-8 assay; format: toxicity, cell-based; settings: pc-12, 24 h, dose 0.625-10 µM
[14] = Cytotoxicity against mouse BV-2 cells assessed as cell viability at 10 uM measured after 24 hrs by CCK-8 assay; format: toxicity, cell-based; settings: read-out: Activity
[15] = tested on: PC-12; assay: Activation of Nrf2-ARE pathway in rat PC-12 cells assessed as increase in Nrf2 expression level incubated for 4 to 8 hrs by Western blot analysis; format: cell-based; settings: filed as activator, dose >= 2.0 µM, time 4-8 hrs
[16] = tested on: PC-12; assay: Activation of Nrf2-ARE pathway in rat PC-12 cells assessed as increase in Nrf2 expression level in nucleus at 1 uM by Western blot analysis; format: cell-based; settings: filed as activator, time >= 8.0 hrs, TDE = time-dependent effect
[17] = tested on: PC-12; assay: Activation of Nrf2-ARE pathway in rat PC-12 cells assessed as upregulation of GPX4 expression level incubated for 8 hrs by Western blot analysis; format: cell-based; settings: filed as activator, dose >= 2.0 µM
[18] = tested on: PC-12; assay: Activation of Nrf2-ARE pathway in rat PC-12 cells assessed as upregulation of NQO1 expression level incubated for 8 hrs by Western blot analysis; format: cell-based; settings: filed as activator, dose >= 2.0 µM
[19] = Acute toxicity in Kunming mouse at >= 2500 mg/kg, IG measured for 14 days; format: organism-based; settings: in vivo, po, 336 h, time 14 day
[20] = Acute toxicity in Kunming mouse assessed as effect on body weight at 625 to 2500 mg/kg, po measured at 4 to 14 days; format: organism-based; settings: in vivo, dose lower 625 mg/kg, time lower 4 day, dose upper 2500 mg/kg, time upper 14 day
[21] = Acute toxicity in Kunming mouse assessed as abnormalities in lung at 2500 mg/kg, po measured on day 14 by H and E staining based histopathological analysis; format: organism-based; settings: in vivo, 336 h, time 14 day
[22] = Acute toxicity in Kunming mouse assessed as abnormalities in liver at 2500 mg/kg, po measured on day 14 by H and E staining based histopathological analysis; format: organism-based; settings: in vivo, 336 h, time 14 day
[23] = Acute toxicity in Kunming mouse assessed as abnormalities in brain at 2500 mg/kg, po measured on day 14 by H and E staining based histopathological analysis; format: organism-based; settings: in vivo, 336 h, time 14 day
[24] = Acute toxicity in Kunming mouse assessed as abnormalities in kidney at 2500 mg/kg, po measured on day 14 by H and E staining based histopathological analysis; format: organism-based; settings: in vivo, 336 h, time 14 day
[25] = tested on: Mus musculus; assay: Antialzheimer activity in scopolamine-induced cognitive impairment Kunming mouse model assessed as step down latency time at 80 mg/kg, po administered for 1 hr followed by scopolamine induction for 0.5 hr and measured after 5 min; format: functional; settings: time 95 min, 1.583 h
[26] = tested on: Mus musculus; assay: Antialzheimer activity in scopolamine-induced cognitive impairment Kunming mouse model assessed as number of errors in step down test at 80 mg/kg, po administered for 1 hr followed by scopolamine induction for 0.5 hr and measured after 5 min; format: functional; settings: time 95 min, 1.583 h
[27] = tested on: Mus musculus; assay: Antialzheimer activity in scopolamine-induced cognitive impairment Kunming mouse model assessed as step down latency time at 20 mg/kg, po administered for 1 hr followed by scopolamine induction for 0.5 hr and measured after 5 min (Rvb=36.25 sec); format: functional; settings: time 95 min, 1.583 h
[28] = tested on: Mus musculus; assay: Antialzheimer activity in scopolamine-induced cognitive impairment Kunming mouse model assessed as number of errors in step down test at 20 mg/kg, po administered for 1 hr followed by scopolamine induction for 0.5 hr and measured after 5 min (Rvb=2.2); format: functional; settings: time 95 min, 1.583 h

Sequence of Cholinesterase (Equus caballus, UniProt P81908) (P81908 whole entry): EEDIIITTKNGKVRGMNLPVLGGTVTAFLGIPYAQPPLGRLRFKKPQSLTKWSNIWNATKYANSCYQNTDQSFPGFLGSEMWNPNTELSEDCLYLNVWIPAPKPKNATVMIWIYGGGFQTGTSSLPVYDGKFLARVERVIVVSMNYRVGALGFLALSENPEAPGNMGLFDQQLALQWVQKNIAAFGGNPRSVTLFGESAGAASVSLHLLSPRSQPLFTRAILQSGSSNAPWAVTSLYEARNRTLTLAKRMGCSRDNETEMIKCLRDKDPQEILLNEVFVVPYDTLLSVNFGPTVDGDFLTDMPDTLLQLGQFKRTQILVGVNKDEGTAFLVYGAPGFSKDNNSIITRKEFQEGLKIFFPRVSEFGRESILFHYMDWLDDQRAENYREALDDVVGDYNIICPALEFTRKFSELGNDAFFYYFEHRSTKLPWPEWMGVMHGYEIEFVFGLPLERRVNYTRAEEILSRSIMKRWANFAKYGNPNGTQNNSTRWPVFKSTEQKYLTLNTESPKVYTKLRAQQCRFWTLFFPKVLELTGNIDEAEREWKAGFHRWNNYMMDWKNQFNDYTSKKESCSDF
Sequence of Acetylcholinesterase (Electrophorus electricus, UniProt O42275) (O42275 whole entry): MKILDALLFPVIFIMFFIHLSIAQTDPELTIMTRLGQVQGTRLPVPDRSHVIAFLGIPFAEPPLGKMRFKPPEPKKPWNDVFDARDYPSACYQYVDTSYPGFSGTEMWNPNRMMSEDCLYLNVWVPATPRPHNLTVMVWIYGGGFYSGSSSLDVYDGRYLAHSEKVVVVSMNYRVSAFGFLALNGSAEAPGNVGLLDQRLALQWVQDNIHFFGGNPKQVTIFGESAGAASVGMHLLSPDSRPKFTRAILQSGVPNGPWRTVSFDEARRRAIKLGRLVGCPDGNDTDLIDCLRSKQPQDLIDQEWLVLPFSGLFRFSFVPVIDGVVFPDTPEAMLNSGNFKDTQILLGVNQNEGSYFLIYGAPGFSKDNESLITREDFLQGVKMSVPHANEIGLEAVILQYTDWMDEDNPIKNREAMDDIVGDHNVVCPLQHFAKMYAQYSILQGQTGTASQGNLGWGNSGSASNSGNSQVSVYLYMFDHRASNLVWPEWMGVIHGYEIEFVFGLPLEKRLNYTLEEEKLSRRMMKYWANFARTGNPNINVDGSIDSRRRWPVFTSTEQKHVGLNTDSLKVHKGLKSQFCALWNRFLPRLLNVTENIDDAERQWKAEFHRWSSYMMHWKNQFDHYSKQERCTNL
T1 sequence (P22303 whole entry): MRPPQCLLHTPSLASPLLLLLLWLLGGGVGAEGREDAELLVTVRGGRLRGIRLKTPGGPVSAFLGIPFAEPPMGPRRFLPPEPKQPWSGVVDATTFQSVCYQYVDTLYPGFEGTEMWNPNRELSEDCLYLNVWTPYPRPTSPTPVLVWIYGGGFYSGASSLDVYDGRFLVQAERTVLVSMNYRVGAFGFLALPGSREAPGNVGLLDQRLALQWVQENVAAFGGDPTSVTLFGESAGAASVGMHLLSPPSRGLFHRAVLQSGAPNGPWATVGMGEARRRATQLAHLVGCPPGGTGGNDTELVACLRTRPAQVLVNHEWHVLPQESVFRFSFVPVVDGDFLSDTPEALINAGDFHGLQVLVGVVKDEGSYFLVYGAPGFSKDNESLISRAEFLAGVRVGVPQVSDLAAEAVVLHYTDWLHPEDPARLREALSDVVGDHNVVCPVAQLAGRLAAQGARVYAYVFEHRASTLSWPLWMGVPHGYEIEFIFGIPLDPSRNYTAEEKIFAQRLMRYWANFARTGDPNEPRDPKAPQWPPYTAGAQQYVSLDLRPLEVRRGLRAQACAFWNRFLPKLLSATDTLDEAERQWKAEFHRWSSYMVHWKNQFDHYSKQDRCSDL
T2 sequence (P06276 whole entry): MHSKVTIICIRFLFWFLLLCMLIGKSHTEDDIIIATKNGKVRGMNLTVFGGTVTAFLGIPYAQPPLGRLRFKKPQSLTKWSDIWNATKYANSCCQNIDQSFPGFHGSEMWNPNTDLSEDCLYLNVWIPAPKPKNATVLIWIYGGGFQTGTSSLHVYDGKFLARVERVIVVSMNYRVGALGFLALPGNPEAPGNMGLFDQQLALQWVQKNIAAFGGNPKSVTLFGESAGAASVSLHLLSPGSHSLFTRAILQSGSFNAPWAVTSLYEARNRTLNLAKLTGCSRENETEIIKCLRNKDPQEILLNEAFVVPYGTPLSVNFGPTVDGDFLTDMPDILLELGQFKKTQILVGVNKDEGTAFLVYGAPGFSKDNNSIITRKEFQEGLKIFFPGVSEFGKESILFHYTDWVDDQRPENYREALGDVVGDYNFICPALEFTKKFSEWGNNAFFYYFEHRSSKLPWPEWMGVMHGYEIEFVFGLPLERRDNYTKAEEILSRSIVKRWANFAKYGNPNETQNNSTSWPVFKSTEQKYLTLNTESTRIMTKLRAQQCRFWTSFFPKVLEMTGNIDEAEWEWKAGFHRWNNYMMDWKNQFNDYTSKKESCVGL
Sequence of Acetylcholinesterase (Electrophorus electricus) (O42275 24-633 limits assumed): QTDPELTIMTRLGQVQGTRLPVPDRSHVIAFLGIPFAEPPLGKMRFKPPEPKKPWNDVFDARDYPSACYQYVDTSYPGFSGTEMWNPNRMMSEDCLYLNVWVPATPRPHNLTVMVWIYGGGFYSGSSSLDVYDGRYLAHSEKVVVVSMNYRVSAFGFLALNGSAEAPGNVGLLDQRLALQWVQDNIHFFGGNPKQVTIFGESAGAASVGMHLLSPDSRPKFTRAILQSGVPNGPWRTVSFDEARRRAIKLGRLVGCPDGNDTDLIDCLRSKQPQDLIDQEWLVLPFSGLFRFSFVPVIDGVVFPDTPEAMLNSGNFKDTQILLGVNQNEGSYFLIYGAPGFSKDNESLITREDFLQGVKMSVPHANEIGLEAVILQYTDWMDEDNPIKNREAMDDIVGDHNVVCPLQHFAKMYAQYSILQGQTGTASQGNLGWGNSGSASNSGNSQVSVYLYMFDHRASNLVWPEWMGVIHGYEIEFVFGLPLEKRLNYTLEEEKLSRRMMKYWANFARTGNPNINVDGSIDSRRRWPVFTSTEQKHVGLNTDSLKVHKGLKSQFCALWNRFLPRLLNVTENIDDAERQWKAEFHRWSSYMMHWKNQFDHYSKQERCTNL

SMILES	IC50 [1] [µM]	IC50 [2] [µM]	Activity [3] [equiv]	IC50 [4] [µM]	IC50 [5] [µM]	Ratio IC50 [6]	Papp at 18 h [7] [×10⁻⁶ cm/s]	also measured
COc1ccc2c(c1)c(C=O)cn2CCCCCCCCCCCCN(C)Cc1cccc(O)c1	27.6	0.31	< 0.01	76.5	0.15	510	4.71	
COc1ccc2c(c1)c(C=O)cn2CCCCCCCCCCN(C)Cc1ccc(O)cc1	1.47	0.12	0.05	0.6	0.19	3.16	5.46	
COc1ccc2c(c1)c(C=O)cn2CCCCCCCCN(C)Cc1ccc(O)cc1	1.77	0.45	0.28	2.06	0.49	4.2	4.62	
COc1ccc2c(c1)c(C=O)cn2CCCCCCCCCCCCN(C)Cc1ccc(OC)c(OC)c1	51.8	0.88	< 0.01				5.27	
COc1ccc2c(c1)c(C=O)cn2CCCCCCCCN(C)Cc1cccc(O)c1	3.39	5.26	0.22	2.6	2.15	1.21	6.05	
COc1ccc2c(c1)c(C=O)cn2CCCCN(C)Cc1ccc(O)cc1	65.2	20.1	0.91					
COc1ccc2c(c1)c(C=O)cn2CCCCCCN(C)Cc1cccc(O)c1	0.81	16.2	0.82					
COc1ccc2c(c1)c(C=O)cn2CCCCCCCCCCN(C)Cc1cccc(O)c1	3.1	0.61	< 0.01	4.52	0.19	23.8	5.76	
COc1ccc2c(c1)c(C=O)cn2CCCCCCCCCN(C)Cc1cccc(O)c1	3.36	1.63	< 0.01	5.19	2.36	2.2		
C[C@]12CC[C@@H]3c4ccc(O)cc4CC[C@H]3[C@@H]1CC[C@@H]2O [ESTRADIOL]							14.1	
O=c1c(O)c(-c2ccc(O)c(O)c2)oc2cc(O)cc(O)c12			6.14					
COc1ccc2c(c1)c(C=O)cn2CCCN(C)Cc1ccc(O)cc1	67.6	6.53	1.12				5.69	
COc1ccc2c(c1)c(C=O)cn2CCCN(C)Cc1cccc(O)c1		72.3	0.37					inhibition [8]: 48.1%; Selectivity Index [9]: > 1
CCN(CCCCCCCCCCCCn1cc(C=O)c2cc(OC)ccc21)Cc1cccc(O)c1	10.5	0.19	0.13	42.5	0.88	48.3	8.18	
COc1ccc2c(c1)c(C=O)cn2CCCCCN(C)Cc1ccc(O)cc1	26.9	6.19	0.78					
COc1ccc2c(c1)c(C=O)cn2CCCCCCCCCCCCN(C)Cc1ccc(O)cc1	33.8	1.04	< 0.01	60.6	0.26		10	Selectivity Index [10]: > 100
COc1ccc2c(c1)c(C=O)cn2CCCCCCCCCN(C)Cc1ccc(O)cc1	25.8	0.53	< 0.01	6.23	0.39	16	5.85	
COc1cccc(CN(C)CCCCCCCCCCCCn2cc(C=O)c3cc(OC)ccc32)c1	69.1	0.43	< 0.01		5.49		1.82	inhibition [11]: 46.1%; Selectivity Index [10]: > 200
CN(CCCCCCCCCCCCn1cc(C=O)c2cc(O)ccc21)Cc1cccc(O)c1	69.5	2.14	5.13	177	1.2	148	9.98	Ki [12]: 1.77 µM; Activity [13]: Non-Toxic; viability at 24 h, 10 µM [14]: > 50%; Activity [15]: Dose-Dependent Effect; Activity [16]: Tde; Activity [17]: Dose-Dependent Effect; Activity [18]: Dose-Dependent Effect; Activity [19]: Non-Toxic; Activity [20]: Non-Toxic; Activity [21]: Non-Toxic; Activity [22]: Non-Toxic; Activity [23]: Non-Toxic; Activity [24]: Non-Toxic; Time [25]: 233 s; Activity [26]: 0.6; Time [27]: 17.6 s; Activity [28]: 2.5
COc1ccc2c(c1)c(C=O)cn2CCCCCCCCCCCCCCN(C)Cc1cccc(O)c1	31.6	8.76	< 0.01					
COc1ccc(CN(C)CCCCCCCCCCCCn2cc(C=O)c3cc(OC)ccc32)cc1	79.9	5.49	< 0.01		0.43	233	4.09	inhibition [11]: 46.1%
COc1ccc2c(c1)c(C=O)cn2CCCCCCN(C)Cc1ccc(O)cc1	0.54	7.2	0.61					
CN(C)CCCN1c2ccccc2Sc2ccc(Cl)cc21 [CHLORPROMAZINE]							5.93	
COc1ccc2c(c1)c(C=O)cn2CCCCCN(C)Cc1cccc(O)c1	7.13	45.4	0.2					
COc1ccc2c(c1)c(C=O)cn2CCCCCCCN(C)Cc1cccc(O)c1	1.39	5.47	< 0.01	5.54	4.89	1.13	4.78	
COc1ccc2c(c1)c(C=O)cn2CCCCN(C)Cc1cccc(O)c1		42	< 0.01					inhibition [8]: 48.2%; Selectivity Index [9]: > 2
COc1ccc2c(c1)c(C=O)cn2CCCCCCCN(C)Cc1ccc(O)cc1	1.43	2.1	1.55	1.61	0.89	1.81	4.19	
